Here are results for three compounds from patent USRE43879E1, “Use of the dextrogyral enantiomer of milnacipran for the preparation of a drug” (priority 2003, dated 2012).

Each structure is given as a SMILES string. Read-outs that look alike come from different tables or passages of the source.

One data set concerns the target T1, 3H-paroxetine binding (Rattus norvegicus, UniProt P31652).
T1 construct: the hypothalamus was removed, weighed and homogenised on a Dounce; from tissue
Briefly: Paroxetine binding, rat hypothalamus membranes. As to the method: 2.1.3. Paroxetine Binding
Male Sprague-Dawley rats (Janvier) weighing 180-200 g were used. The hypothalami of several rats were collected and homogenised in 5 ml of chilled buffer (50 mM Tris-HCL, 120 mM NaCl, 5 mM KCl, pH 7.5) on a Dounce, and the homogenate was centrifuged at 30 000 g (27 000 rpm-Beckman. L5-50E, T40 rotor) for 10 min. The residue obtained was recovered in 5 ml of buffer and re-centrifuged under the same conditions. The new residue was recovered in the same buffer and finally re-homogenised on a Dounce at a tissue concentration of 10 mg/ml. The membrane suspension (100 μl) was incubated with 3H-paroxetine (NEN, France, 28.6 Ci/mmol) at a concentration (final) of 0.1 nM, at 20° C., in a final volume of 1 ml for 2 hr. After 2 hr incubation, the reaction was stopped by vacuum filtration on Whatman GF/F filters pre-treated in a 0.05% solution of polyethylenimine 30 min beforehand (prediluted with 4 ml of chilled buffer, then the tube was rinsed with 2 times 4 ml). Radioactivity was measured by liquid scintillation spectrometry (Packard, Tricarb 4640) using Emulsifier-Safe (Packard) as the scintillating agent.
Specific ^3H-paroxetine binding was defined as the difference between total binding and that remaining in the presence of 10 μM of fluoxetine.
The IC50 were determined by transposing the percentages of inhibition onto a graph in relation to the log of the concentration of the product (6 concentrations in duplicate).

The target in a further data set is T2, 3H-serotonin uptake (Rattus norvegicus, UniProt P31652).
T2 construct: the hypothalamus was removed, weighed and homogenised on a Dounce; from tissue
T2 sequence (P31652 whole entry): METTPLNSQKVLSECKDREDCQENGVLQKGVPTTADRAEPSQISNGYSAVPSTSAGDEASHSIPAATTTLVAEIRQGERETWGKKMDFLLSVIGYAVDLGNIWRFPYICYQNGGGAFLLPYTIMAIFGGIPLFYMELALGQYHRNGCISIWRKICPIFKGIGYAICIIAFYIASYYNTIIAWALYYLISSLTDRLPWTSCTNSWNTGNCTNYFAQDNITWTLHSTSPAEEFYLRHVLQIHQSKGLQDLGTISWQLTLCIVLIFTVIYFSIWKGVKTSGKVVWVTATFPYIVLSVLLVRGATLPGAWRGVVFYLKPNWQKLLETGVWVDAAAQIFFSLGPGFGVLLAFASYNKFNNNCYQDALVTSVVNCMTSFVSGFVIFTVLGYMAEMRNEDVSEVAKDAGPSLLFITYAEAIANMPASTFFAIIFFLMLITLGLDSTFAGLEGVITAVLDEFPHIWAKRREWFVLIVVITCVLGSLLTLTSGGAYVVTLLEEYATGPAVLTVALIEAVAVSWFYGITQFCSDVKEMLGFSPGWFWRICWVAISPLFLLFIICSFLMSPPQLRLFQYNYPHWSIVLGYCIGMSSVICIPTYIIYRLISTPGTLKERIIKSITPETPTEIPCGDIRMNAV
Briefly: Serotonin uptake, rat hypothalamus P2 fraction (synaptosomes). In kind it is biochemical.

Data set [1] addresses T3, 3H-norepinephrine uptake (Rattus norvegicus, UniProt Q63380). As to conditions: read-out: IC50 3H-Norepinephrine uptake; rat hypothalamus P2, 3H-NE 50 nM, 10 min, 37° C.
Procedure: (§1) Norepinephrine Uptake by a Homogenate (P2) of Rat Hypothalamus.
(§2) Male Sprague-Dawley rats, from 200 to 300 g, were stunned and decapitated, and the hypothalami were rapidly removed. Two hypothalami are homogenised in 4 ml of sucrose 0.32 M on a Potter S by 16 complete passes back and forth at 800 rpm, then centrifuged for 10 min at 1,000 g to eliminate cell debris. The supernate is centrifuged for 20 min at 10,000 g and the P2 thus obtained is recovered in 4 ml of sucrose 0.32 M, and homogenised on a Dounce.
(§3) ^3H-(1)-NE: 13 Ci/mmol (Amersham) is used.
(§4) Uptake takes place in a phosphate buffer (containing 8 g of NaCl, 1.21 g of K2HPO4 and 0.34 g of KH2PO4 per liter) pre-oxygenated 30 min before use with a mixture of O2/CO2 (95%/5%).
(§5) In 5-ml plastic tubes placed in a water bath at 37° C., the following are introduced: • 100 μl of buffer or inhibitor, • 700 μl of buffer (containing 25 μM pargyline), • 100 μl of P2.
(§6) After temperature balance, the reaction begins by the addition of 100 μl of ^3H-NE, 50 nM final concentration.
(§7) Exactly 10 min later, the reaction is stopped by adding 2.5 ml of chilled buffer and filtering through GF/F filters. The tube is then rinsed once and the filter once with 2.5 ml of chilled buffer. The filter is then introduced into a Beckman mini-vial and, after adding 3 ml of Instagel (Packard) liquid scintillator, radioactivity is measured with a Tricarb Packard scintillation counter.
(§8) Non-specific uptake (NS) is measured as the presence of DMI 10^−5 M.
(§9) The percentage of inhibition is calculated using the formula:
(§10) The IC50 is determined graphically on the mean curve of percentage of inhibition (4 assays) in relation to the log of the concentration of inhibitor.
The conditions of data set [2]: in vivo. The source says:
In animals, the pharmacokinetics of each enantiomer were studied following administration of the racemate or of one single enantiomer.

Data set [3] has as its target T3, 3H-norepinephrine uptake. In words: biochemical.
Procedure: as §1, §2, §3, §4, §5, §6, §7, §8, §9, §10
A short description of data set [4]: Pharmacokinetic study in man (12 healthy subjects), racemate or one enantiomer alone. In kind it is in vivo. As to conditions: human, plasma; for half-life: read-out: T½ (converted).
Procedure: A pharmacokinetic study in man involving 12 healthy subjects was performed by administering the racemate or one of the two enantiomers alone.
For a further data set, the system named is primary rat hepatocytes. Briefly: Safe-Hit genomic test of predictive toxicology (Toxicity Index) on primary rat hepatocytes. It is filed as cell-based. As to conditions: 16 h. The text has this:
After treatment of the primary rat hepatocytes in culture, the RNA was extracted in order to generate labelled complementary-DNA probes which were then hybridised on a membrane containing 682 alternatively-spliced fragments specific to cell stress. A Toxicity Index was obtained for each of the products by comparing the hybridisation profile of the treated cells with that of the untreated cells.
Safe-Hit allows molecules within a chemical series to be ranked according to a Toxic Index, determined after the following basic steps (systematically performed in duplicate for each product): • treatment of the cells lines with the various products at three different concentrations, deduced from a preliminary cytotoxicology test (MTT-assay): a reference concentration corresponding to 80% cell viability, a concentration 10-fold higher—when possible—and a concentration 10-fold lower, • preparation of total RNA and of the corresponding radio-labelled cDNA probes, • hybridisation of the cDNA probes: the Safe-Hit macroarray contains 682 independent clones, corresponding to alterations in gene splicing induced by overexpression of WTp53 (p53 is the most ubiquitous “mediator” of cell stress, chosen for the development of this methodology), • acquisition and determination of the Toxicity Index. 4.1.2. Cells
The cells used in the study (preliminary MTT-assay of cytotoxicity and the main test) are cryopreserved hepatocytes from Sprague-Dawley rats in primary culture (batches Hep184005 and Hep184006-Biopredic), cultured under standard conditions.
The cells are seeded and cultured for 16 hours with each product, at the three concentrations chosen on the basis of the preliminary MTT-assay; two controls (untreated cells in solvent alone) are added to the series.
The results of the two Safe-Hit analyses are then compared and combined to assess the potential toxicity of the various compounds tested. Two parameters that can be modified by the user are involved in the calculation of the Toxicity Index: • Background Threshold (BT) smoothes out weak signals, close to background noise and not attributable to significant gene expression. […] The value of this parameter is usually 2 or less than 2 in order to obtain relevant results. […]
Toxicity Indices (TI) were determined as described above. […] Two separate analyses were performed using two levels of differentiation (Induction Factor-IF) in relation to the untreated controls: • a factor of at least 1.7 in relation to the untreated controls. This factor of 1.7 times represents the weakest value that allows an index not to be obtained in relation to the two untreated controls. • a factor of at least 2 in relation to the untreated controls. This factor of 2 times allows the most robust signals to be taken into account. 4.3.1. Induction Factor of 1.7 in Relation to Untreated Control (Table 7)

[5] abbreviates: enantiomer administered alone (25 mg).
Setting [6] is: enantiomer assayed after F2207 (50 mg).

T1 sequence (P31652 whole entry): as above
T3 sequence (Q63380 1-617): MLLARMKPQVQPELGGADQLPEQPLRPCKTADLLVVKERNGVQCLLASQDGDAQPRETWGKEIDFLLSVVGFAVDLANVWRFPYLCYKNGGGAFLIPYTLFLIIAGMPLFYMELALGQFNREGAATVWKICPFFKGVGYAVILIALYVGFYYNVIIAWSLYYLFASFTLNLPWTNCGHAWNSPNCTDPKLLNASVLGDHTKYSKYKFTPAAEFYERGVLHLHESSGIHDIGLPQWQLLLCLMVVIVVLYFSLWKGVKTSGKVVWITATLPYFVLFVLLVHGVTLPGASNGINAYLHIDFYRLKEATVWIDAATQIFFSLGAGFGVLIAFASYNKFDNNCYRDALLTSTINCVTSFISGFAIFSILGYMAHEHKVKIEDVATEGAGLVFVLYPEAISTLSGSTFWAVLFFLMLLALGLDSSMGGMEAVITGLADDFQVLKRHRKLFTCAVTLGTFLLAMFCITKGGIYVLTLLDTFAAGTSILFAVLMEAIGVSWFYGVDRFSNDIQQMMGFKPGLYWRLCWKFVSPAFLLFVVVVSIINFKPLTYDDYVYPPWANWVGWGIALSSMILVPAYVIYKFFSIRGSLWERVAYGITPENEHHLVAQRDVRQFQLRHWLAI
Procedure for 3H-serotonin uptake: After homogenisation of brain tissue in a sucrose solution, the presynaptic terminals break away from the axon and close to form synaptosomes obtained by subcellular fractionation.
Male Sprague-Dawley (Janvier) rats weighing 180-200 g were used.
This homogenate was centrifuged for 10 min at 1,000 g (2,400 rpm-Hettich, Rotenta). […] The residue (called the P2 fraction) was recovered in sucrose at a concentration of 50 mg/ml.
Exactly 5 min after the start of incubation, the reaction was stopped by vacuum filtration on Whatman GF/F filters (predilution with 2.5 ml of chilled buffer then rinsing with 3 times 2.5 ml).
The IC50 were determined by transposing the percentages of inhibition onto a graph in relation to the log of the product concentration (6 concentrations in duplicate).

For orientation: IC50 means the concentration that inhibits the measured activity by half. `CCN(CC)C(=O)C1(c2ccccc2)CC1CN` (racemic) [F2207, Z(±)-2-(aminomethyl)-N,N-diethyl-1-phenyl cyclopropane carboxamide]: the IC50 was determined as 0.13 µM on 3H-paroxetine binding, 0.15 µM against 3H-serotonin uptake and 30 nM on 3H-norepinephrine uptake [1].

One may read the AUC(0-inf) as total exposure, with the tail of the curve extrapolated. A word on the Cmax: it is the peak of the concentration-time curve. For orientation: Tmax means the time from dosing to the highest level. On 3H-paroxetine binding, `CCN(CC)C(=O)[C@@]1(c2ccccc2)C[C@H]1CN` [F2695, Z-(1S,2R)-2-(aminomethyl)-N,N-diethyl-1-phenyl cyclopropane carboxamide] gave an IC50 of 0.06 µM. Moreover, the “Plasma concentrations of the enantiomers compared” value in data set [2] (monkey) is “approximately equivalent”. The “Plasma concentrations of the enantiomers compared” value in data set [2] (rat) is given as “approximately equivalent”. It took 0.015 µM to reach half-maximal inhibition on 3H-norepinephrine uptake [3] (IC50). For the same compound, at 3H-serotonin uptake, half-maximal inhibition (IC50) required 0.046 µM. Also, in data set [4] (setting [5]), the area under the curve AUC(0-inf) came out at 2870 nM·h, the Cmax came out at 0.216 µM, the Tmax was found to be 3.08 h and the half-life was 9.38 h. Further, in data set [4] (setting [6]), the AUC(0-inf) turned out to be 2900 nM·h, the peak level (Cmax) was 0.214 µM, the Tmax was found to be 3.42 h and the half-life is 9.28 h. Besides, in the data set on primary rat hepatocytes (Sprague-Dawley, rat, 100 μM), the “Clone Q11 (unk), regulation factor vs untreated control” value is reported as 1.81; the “Number of down-regulated clones (Down)” value is given as 1; the “Number of up-regulated clones (Up)” value was 1.

`CCN(CC)C(=O)[C@]1(c2ccccc2)C[C@@H]1CN` [F2696, Z-(1R, 2S)-2-(aminomethyl)-N,N-diethyl-1-phenyl cyclopropane carboxamide] registered an IC50 at 3H-paroxetine binding of 0.7 µM. The “Plasma concentrations of the enantiomers compared” value in data set [2] (monkey) is “approximately equivalent”. For the same compound, in data set [2] (rat), the “Plasma concentrations of the enantiomers compared” value is “approximately equivalent”. The compound also displayed an IC50 against 3H-norepinephrine uptake [3] of 0.75 µM. At 3H-serotonin uptake, this compound had a 50% inhibitory concentration (IC50) of 0.6 µM. Besides, in data set [4] (setting [5]), the AUC(0-inf) was 1540 nM·h, the Cmax was found to be 0.212 µM, the Tmax was 2.21 h and the half-life was 5.58 h. Besides, in data set [4] (setting [6]), the AUC(0-inf) turned out to be 1560 nM·h, the Cmax is 0.179 µM, the Tmax was 2.87 h and the half-life was 5.75 h. Also, in the data set on primary rat hepatocytes (100 μM), the “Clone G09 (H. sapiens mitochondrion, cytochrome b), regulation factor vs untreated control” value was 2.09; the “Clone I01 (H. sapiens mitochondrion, cytochrome c oxidase subunit 1), regulation factor vs untreated control” value is recorded as 2.05; the “Clone L01 (H. sapiens divalent cation tolerant protein CUTA mRNA), regulation factor vs untreated control” value is 2.05; the “Clone M07 (H. sapiens mitochondrion, cytochrome c oxidase subunit 1), regulation factor vs untreated control” value is given as 2.25. Further, in the data set with primary rat hepatocytes (100 μM), the “Clone M12 (H. sapiens mRNA; cDNA DKFZp564C1563), regulation factor vs untreated control” value was 0.21 and the “Clone W17 (H. sapiens mitochondrion, hypoxia inducible gene-14), regulation factor vs untreated control” value is 2.96. In the data set on primary rat hepatocytes (Sprague-Dawley, rat, 1 μM), the “Clone T08 (H. sapiens mRNA for KIAA1185 protein), regulation factor vs untreated control” value (from here on “Clone T08 … vs untreated control”) was 0.50; the “Clone U04 (H. sapiens translation initiation factor elF-2alpha mRNA), regulation factor vs untreated control” value (“Clone U04 … vs untreated control” for short) was 0.57; the “Number of down-regulated clones (Down)” value was 2. In addition, in the data set on primary rat hepatocytes (Sprague-Dawley, rat, 10 μM), the “Clone AC13 (H. sapiens 7S RNA L gene), regulation factor vs untreated control” value was 0.22; the “Clone T08 … vs untreated control” value was 0.22; the “Clone U04 … vs untreated control” value is given as 0.26; the “Clone X02 (unk), regulation factor vs untreated control” value is listed as 0.29. For the same compound, the “Number of down-regulated clones (Down)” value in the data set on primary rat hepatocytes (Sprague-Dawley, rat, 10 μM) is 5. In addition, in the data set with primary rat hepatocytes (Sprague-Dawley, rat, 100 μM), the “Clone A20 (H. sapiens initiation factor elF-5A gene), regulation factor vs untreated control” value is on record as 0.56; the “Clone AC13 (H. sapiens 7S RNA L gene), regulation factor vs untreated control” value is 0.16; the “Clone C01 (H. sapiens mitochondrion, 16S), regulation factor vs untreated control” value was 3.20; the “Clone E11 (H. sapiens chlordecone reductase homolog liver, mRNA), regulation factor vs untreated control” value was 2.12. Besides, in the data set on primary rat hepatocytes (Sprague-Dawley, rat, 100 μM), the “Clone I18 (H. sapiens 18S rRNA gene), regulation factor vs untreated control” value is on record as 2.38; the “Clone J03 (H. sapiens CLP mRNA), regulation factor vs untreated control” value is given as 2.12; the “Clone L22 (H. sapiens mRNA for Lon protease-like protein), regulation factor vs untreated control” value is listed as 1.78; the “Clone M23 (Sequence 21 from U.S. Pat. No. 5,851,764), regulation factor vs untreated control” value is 1.95. Besides, in the data set on primary rat hepatocytes (Sprague-Dawley, rat, 100 μM), the “Clone P05 (H. sapiens PAC clone DJ404K21 from Xq23), regulation factor vs untreated control” value is recorded as 1.78; the “Clone Q24 (H. sapiens 28S ribosomal RNA gene), regulation factor vs untreated control” value is reported as 1.77; the “Clone T08 … vs untreated control” value is 0.20; the “Clone U04 … vs untreated control” value is on record as 0.19. In addition, in the data set with primary rat hepatocytes (Sprague-Dawley, rat, 100 μM), the “Clone X02 (unk), regulation factor vs untreated control” value is reported as 0.20; the “Clone X06 (H. sapiens Genomic sequence from 9q34), regulation factor vs untreated control” value is on record as 0.16; the “Clone X23 (unk), regulation factor vs untreated control” value is 1.92; the “Clone Y17 (H. sapiens 28S ribosomal RNA gene), regulation factor vs untreated control” value was 2.65.
